The test system of one data set is lung metastasis. To be noted: cited from earlier work; for tumor growth and angiogenesis: Parish et al. 1999; for incidence of lung metastasis: experimental animals.
For another data set, the target named is T1, human heparanase (Homo sapiens, UniProt Q9Y251).
T1 sequence (Q9Y251 158-543): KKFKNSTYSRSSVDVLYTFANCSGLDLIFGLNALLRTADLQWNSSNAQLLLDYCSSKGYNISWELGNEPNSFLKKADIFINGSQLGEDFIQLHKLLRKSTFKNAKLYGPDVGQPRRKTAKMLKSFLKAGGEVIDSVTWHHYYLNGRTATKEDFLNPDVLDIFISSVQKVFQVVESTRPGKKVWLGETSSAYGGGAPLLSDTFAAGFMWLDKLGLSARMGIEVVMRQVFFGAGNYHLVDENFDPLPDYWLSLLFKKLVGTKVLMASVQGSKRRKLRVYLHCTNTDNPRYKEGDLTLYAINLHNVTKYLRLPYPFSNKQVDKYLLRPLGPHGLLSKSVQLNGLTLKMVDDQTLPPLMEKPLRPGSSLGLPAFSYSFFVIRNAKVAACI
T1 sequence (Q9Y251 36-109): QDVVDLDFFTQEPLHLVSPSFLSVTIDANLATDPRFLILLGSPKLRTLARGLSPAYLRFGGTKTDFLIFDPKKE
To be noted: cited from earlier work.

The target of another data set is T2, mouse heparanase (Mus musculus, UniProt Q6YGZ1).
T2 construct: heterodimer of the 50 kDa polypeptide (Lys^150-Ile^535) and the 8 kDa peptide (Asp^28-Lys^100); made in house
T2 sequence (Q6YGZ1 150-535): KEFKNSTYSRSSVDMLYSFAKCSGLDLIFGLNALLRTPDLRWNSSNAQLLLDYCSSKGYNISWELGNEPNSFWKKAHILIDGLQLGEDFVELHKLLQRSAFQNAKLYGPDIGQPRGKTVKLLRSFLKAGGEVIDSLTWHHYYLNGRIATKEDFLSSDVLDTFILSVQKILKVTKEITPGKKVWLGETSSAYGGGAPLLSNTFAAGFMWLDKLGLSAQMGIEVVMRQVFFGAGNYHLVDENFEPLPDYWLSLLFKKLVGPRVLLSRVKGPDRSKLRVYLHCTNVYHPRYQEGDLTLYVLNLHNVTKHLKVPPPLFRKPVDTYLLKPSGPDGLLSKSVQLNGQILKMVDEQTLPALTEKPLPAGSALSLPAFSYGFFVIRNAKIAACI
T2 sequence (Q6YGZ1 28-100): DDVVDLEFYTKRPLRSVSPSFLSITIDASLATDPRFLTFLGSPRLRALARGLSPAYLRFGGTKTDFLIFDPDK
Put plainly: Inhibition of recombinant mouse heparanase activity. Format: biochemical. The procedure:
Polypeptide samples were mixed with 25 μl of ^35S-ECM-HSPG (a generous gift from Dr. Israel Vlodavsky, The Hadassah-Hebrew University Hospital, Jerusalem, Israel) in a buffer containing 0.1 M sodium acetate, pH 5.0, 0.01% Triton X-100. After overnight incubation at 37° C., the samples were loaded onto a Superose 12 column (0.7×25 cm, 0.5 ml/min) and the radioactivity of the fractions (0.25 ml/fraction) were measured in a β-scintillation counter. The enzymatic activity was also studied for the ability to degrade HS. For this purpose, ^3H-HS-Sepharose (6.25 nM) was substituted as the substrate in the heparanase reaction, and the radioactivity released into the reaction buffer after overnight incubation was determined.

Data set [1] is described as follows: Enzymatic activity of heparanase on radiolabeled HSPG / HS substrates. Format: biochemical. The procedure:
Polypeptide samples were mixed with 25 μl of ^35S-ECM-HSPG (a generous gift from Dr. […] After overnight incubation at 37° C., the samples were loaded onto a Superose 12 column (0.7×25 cm, 0.5 ml/min) and the radioactivity of the fractions (0.25 ml/fraction) were measured in a β-scintillation counter. The enzymatic activity was also studied for the ability to degrade HS. For this purpose, ^3H-HS-Sepharose (6.25 nM) was substituted as the substrate in the heparanase reaction, and the radioactivity released into the reaction buffer after overnight incubation was determined.
To test whether the recombinant mouse heparanase is enzymatically active, purified polypeptide was incubated with metabolically radiolabeled HSPG. The reaction products were analyzed by gel filtration on a Superose 12 column.

As to Laminarin sulfate, in the data set with lung metastasis, the “tumor growth and angiogenesis” value is “markedly reduced”; the “incidence of lung metastasis” value is given as “markedly reduced”. The “tumor metastasis in vivo” value in the data set on lung metastasis (in vivo) is “inhibit”. For the same molecule, the “human heparanase activity in vitro” value at human heparanase is “inhibit”. Also, on mouse heparanase, the IC50 is 50 nM. In addition, on mouse heparanase (1 μM), the “inhibition of mouse heparanase activity at 1 μM” value is given as “completely inhibited”.

Regarding heparin, at mouse heparanase, the “inhibition of mouse heparanase enzyme activity (in words)” value is “inhibited”.

As for mannopentaose phosphate sulfate [PI-88], in the data set with lung metastasis, the “tumor growth and angiogenesis” value is “markedly reduced”; the “incidence of lung metastasis” value is reported as “markedly reduced”.

B1: mouse heparanase: Recombinant full-length mouse heparanase polypeptide of 535 amino acids, mature form a heterodimer of 50 kDa and 8 kDa (protein, UniProt Q6YGZ1 1-535, looked up)
chain: MLRLLLLWLWGPLGALAQGAPAGTAPTDDVVDLEFYTKRPLRSVSPSFLSITIDASLATDPRFLTFLGSPRLRALARGLSPAYLRFGGTKTDFLIFDPDKEPTSEERSYWKSQVNHDICRSEPVSAAVLRKLQVEWPFQELLLLREQYQKEFKNSTYSRSSVDMLYSFAKCSGLDLIFGLNALLRTPDLRWNSSNAQLLLDYCSSKGYNISWELGNEPNSFWKKAHILIDGLQLGEDFVELHKLLQRSAFQNAKLYGPDIGQPRGKTVKLLRSFLKAGGEVIDSLTWHHYYLNGRIATKEDFLSSDVLDTFILSVQKILKVTKEITPGKKVWLGETSSAYGGGAPLLSNTFAAGFMWLDKLGLSAQMGIEVVMRQVFFGAGNYHLVDENFEPLPDYWLSLLFKKLVGPRVLLSRVKGPDRSKLRVYLHCTNVYHPRYQEGDLTLYVLNLHNVTKHLKVPPPLFRKPVDTYLLKPSGPDGLLSKSVQLNGQILKMVDEQTLPALTEKPLPAGSALSLPAFSYGFFVIRNAKIAACI
modifications: full-length
notes: Recombinant full-length mouse heparanase polypeptide of 535 amino acids, mature form a heterodimer of 50 kDa and 8 kDa
B1: the “pH at which the enzyme was most active” value in data set [1] (^3H-HS at various pH conditions) came out at 5.0. The “enzymatic activity at pH 4.0 or 8.0” value in data set [1] (pH 4.0 or 8.0) is “Little or no enzymatic activity was detected”. The “amount of heparanase giving maximal degradation of 6.25 nmole ^3H-HS” value in data set [1] (pH 5.0) is 50 ng. Also, the “additional enzyme necessary for comparable activity” value in data set [1] (pH 7.5 compared with pH 5.0) is about 10 fold. Also, the “degradation of ^35S-HSPG, elution profile on Superose 12 column” value in data set [1] (undigested substrate eluted in fractions 5-15) is “eluted as low-MW fragments in later fractions (16-35)”.

For orientation: IC50 means the point on the concentration scale where inhibition reaches its midpoint.
